Measured values from US6852751B2, “Difluorobutyric acid metalloprotease inhibitors” (The Procter & Gamble Company, priority 2000, dated 2005).

Test system: human subject suffering from rheumatoid arthritis
Assay: Treatment of a human subject with rheumatoid arthritis, oral tablets (Example A)
Assay type: in vivo
Conditions: tablet with 15 mg compound, three tablets per day orally for 2 years
Experimental: A tablet composition for oral administration, according to the present invention, is made comprising:
A human subject weighing 60 kg (132 lbs), suffering from rheumatoid arthritis, is treated by a method of this invention. Specifically, for 2 years, a regimen of three tablets per day is administered orally to said subject.

COc1ccc(-c2ccc(C(F)(F)CCC(=O)O)cc2)cc1 [Example 1, 4,4-Difluoro-4-(4′-methoxy-biphenyl-4-yl)-butyric Acid]
examination at the end of the treatment period: inflammation, mobility, pain: reduced inflammation and improved mobility without concomitant pain
